Tests used:
[1] = tested on: mdx mice; assay: H&E histology of tibialis anterior (TA) muscle; assay type: in vivo, mouse; conditions: mdx Sim vs mdx Con, 8 months treatment
[2] = tested on: CD68; assay: CD68 immunofluorescence of TA muscle sections (inflammation); assay type: in vivo, mouse; conditions: mdx Sim vs mdx Con, 8 months treatment
Method: Next, we quantified the extent of inflammation, a key feature of the dystrophic muscle pathology, by immunofluorescence of TA muscle sections with CD68, a marker of macrophages and other inflammatory cells.
Muscles were imbedded in O.C.T compound and frozen in isopentane cooled in liquid nitrogen. Cryosections (10 μm thick) were placed on a glass side. Sections were fixed with either ice-cold methanol or 2% paraformaldehyde for 5 to 10 min. Some sections were stained with Haemotoxylin and Eosin (H & E) using standard procedures. For immunofluorescence, sections were incubated in blocking buffer (0.8% BSA and 1% fish gelatin in PBS) for 45 min. Primary antibodies; Fibronectin (Sigma), CD68 (Abcam), Caveolin3 (BD Biosciences), and Myosin Heavy Chain 1, 2A and 2B (Developmental Studies Hybridoma Bank) were added for 1 hr 30 min at room temperature. AlexaFluor conjugated secondary antibodies (Life Technologies) were then added for 1 hr 30 min. In some experiments, DAPI was also added to detect nuclei. […] For fluorescence quantification (CD68, fibronectin and myosin heavy chains), images were converted to grayscale in Image J and a threshold applied to calculate the area of fluorescence as a percent of the total area of the section. Fibers with central nuclei were expressed as a percent of total fibers with detectable nuclei (ie. both central and peripheral). […]

[3] = tested on: mdx mice; assay: Diaphragm fibrosis (fibronectin immunofluorescence, hydroxyproline assay for collagen I); assay type: in vivo, mouse
From the text: In order to be a viable treatment approach for DMD, a drug must be efficacious at different stages of the disease and target both skeletal and cardiac muscle. […] Diaphragm force production progressively declines with age in both mdx mice and DMD. […] The replacement of muscle fibers with fibrotic connective tissue is a major cause of impaired muscle force generation in DMD and therefore an important therapeutic target. […] Quantification of total collagen I levels by hydroxyproline assay indicated a 50% reduction in fibrosis for mdx Sim mice.
The diaphragm most closely recapitulates the functional deficits and fibrotic deposition that occur in DMD. […] Quantification of total collagen I levels in diaphragm muscles by hydroxyproline assay also indicated a 50% reduction in fibrosis for mdx Sim mice (FIG. 13E).
Muscles were imbedded in O.C.T compound and frozen in isopentane cooled in liquid nitrogen. […] For fluorescence quantification (CD68, fibronectin and myosin heavy chains), images were converted to grayscale in Image J and a threshold applied to calculate the area of fluorescence as a percent of the total area of the section. Fibers with central nuclei were expressed as a percent of total fibers with detectable nuclei (ie. both central and peripheral).
To quantify muscle fibrosis, Collagen I content was measured using the hydroxyproline assay. […]

[4] = tested on: immortalized mdx myoblast cell line; assay: Differentiation of immortalized mdx myoblasts into myotubes; assay type: cell-based, mouse
Method: However, the statin concentrations required to induce these deleterious effects in vitro are typically 1 μM or greater. These concentrations are considerably (100-1000 times) higher than those found in vivo in mice and humans. […] We then carried out an in vitro experiment using an immortalized mdx myoblast cell line.
Immortomouse mdx myoblasts were grown on gelatin coated plates and until 70% confluence in DMEM supplemented with 10% HS, 20% FBS, 0.5% chicken embryo extract and 20 units/ml of γ-interferon. […] Myotubes were washed in PBS, fixed in ice-cold methanol for 10 min, and H&E stained. Images of myotubes were taken with a Nikon inverted microscope (W.M. Keck Center, University of Washington).

In the case of `CCC(C)(C)C(=O)O[C@H]1C[C@@H](C)C=C2C=C[C@H](C)[C@H](CC[C@@H]3C[C@@H](O)CC(=O)O3)[C@H]21` [Simvastatin, simvastatin], the “number of centrally nucleated (regenerated) muscle fibers” value [1] is reported as “comparable number”, the “reduction of inflammatory cell levels (CD68)” value [2] is reported as ~70% and the “attenuation of fibrosis, fibronectin immunofluorescence” value ([3]; diaphragm sections, old mdx Sim vs mdx Con) is reported as 50%. For the same compound, the “reduction in fibrosis, total collagen I levels by hydroxyproline assay” value ([3]; diaphragm, old mdx mice, 2 months treatment) was 50%, the “muscle differentiation, myotube formation” value ([4]; 50 to 500 nM, 3 days) was “appeared similar to untreated cells” and the “doses at which simvastatin became more toxic, number of viable cells decreased” value ([4]; 3 days of treatment) was ≥ 1 µM.
